Two compounds from patent publication EP3807270B1, “NOVEL HETEROARYL HETEROCYCLYL COMPOUNDS FOR THE TREATMENT OF AUTOIMMUNE DISEASE” (F. Hoffmann-La Roche AG, priority 2018, dated 2019) can be followed below.

Series [1] is described as follows: Human microsome stability assay. As to conditions: 1 µM test compound, 0.5 mg/mL liver microsomal protein, 37 °C. It is filed as in vitro ADME. In a few lines: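 Test compound at 1 µM was incubated with human liver microsomes (0.5 mg/mL protein) and an NADPH-regenerating system in 100 mM potassium phosphate, pH 7.4, at 37 °C. Samples were taken at 0–30 min and quenched with acetonitrile. Remaining compound was quantified by LC-MS/MS, with no-NADPH controls.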
For orientation: Microsomes from liver hold many membrane-bound enzymes, among them those of drug oxidation.

A further series addresses T1, hTLR7 (Homo sapiens, UniProt Q9NYK1).
T1 sequence (Q9NYK1 27-1049): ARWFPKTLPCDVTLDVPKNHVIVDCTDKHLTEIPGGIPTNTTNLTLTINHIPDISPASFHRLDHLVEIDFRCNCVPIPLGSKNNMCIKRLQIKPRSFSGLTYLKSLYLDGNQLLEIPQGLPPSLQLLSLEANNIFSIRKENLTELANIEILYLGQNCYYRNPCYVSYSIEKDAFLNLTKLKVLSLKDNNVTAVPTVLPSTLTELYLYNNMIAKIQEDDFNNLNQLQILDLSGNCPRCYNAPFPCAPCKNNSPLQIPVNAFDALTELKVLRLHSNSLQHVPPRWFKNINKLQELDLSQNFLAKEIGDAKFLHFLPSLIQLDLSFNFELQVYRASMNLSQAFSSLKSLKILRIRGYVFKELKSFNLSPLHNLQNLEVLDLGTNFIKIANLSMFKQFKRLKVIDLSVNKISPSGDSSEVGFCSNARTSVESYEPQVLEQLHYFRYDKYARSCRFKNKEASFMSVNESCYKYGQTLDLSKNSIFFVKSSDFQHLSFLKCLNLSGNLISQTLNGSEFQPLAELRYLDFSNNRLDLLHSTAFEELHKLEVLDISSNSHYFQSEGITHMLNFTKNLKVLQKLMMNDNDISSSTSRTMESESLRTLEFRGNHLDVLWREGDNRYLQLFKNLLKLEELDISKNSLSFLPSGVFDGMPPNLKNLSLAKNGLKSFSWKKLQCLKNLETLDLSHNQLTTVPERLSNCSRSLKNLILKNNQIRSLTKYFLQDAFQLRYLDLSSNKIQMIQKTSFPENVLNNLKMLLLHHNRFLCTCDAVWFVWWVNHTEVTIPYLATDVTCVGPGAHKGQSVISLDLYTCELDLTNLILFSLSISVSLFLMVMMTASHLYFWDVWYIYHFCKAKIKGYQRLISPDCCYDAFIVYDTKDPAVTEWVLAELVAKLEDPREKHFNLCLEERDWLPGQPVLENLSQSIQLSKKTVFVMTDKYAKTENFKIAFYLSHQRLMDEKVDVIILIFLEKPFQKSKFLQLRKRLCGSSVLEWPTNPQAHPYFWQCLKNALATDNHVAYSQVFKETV
The series is described as follows: HEK293-Blue-hTLR-7 cells assay (SEAP reporter, R848 stimulation). It is filed as cell-based. The arrangement: host or cells: HEK293 (HEK-Blue). As to conditions: HEK293-Blue-hTLR7 cells, R848, 20 hrs; read-out: HEK/hTLR7 IC50. In short, it runs like this:
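HEK293-Blue cells stably expressing human TLR7 with an NF-κB/AP-1-driven SEAP reporter were treated with serially diluted compound (1% DMSO final) plus R848 for 20 h at 37 °C. Supernatant SEAP activity was measured with QUANTI-Blue substrate after 2 h at 37 °C, with absorbance read at 620-655 nm.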

Consider `C[C@@H]1CN(c2ccc(C#N)c3nccnc23)C[C@H](CN2CCN(c3cc4c(cn3)CCNC4)CC2)O1` [Example 80, 8-[(2R,6S)-2-methyl-6-[[4-(5,6,7,8-tetrahydro-2,6-naphthyridin-3-yl)piperazin-1-yl]methyl]morpholin-4-yl]quinoxaline-5-carbonitrile], for which the “Clearance of Human microsome” value in series [1] turned out to be 6.15 mL/min/kg. Besides, at hTLR7, the IC50 worked out at 0.008 µM.
For `C[C@@H]1CN(c2ccc(C#N)c3ncccc23)C[C@H](CN2CCN(c3ccc(Cl)cc3)CC2)O1` [Example R2, 5-[(2S,6R)-2-[[4-(4-chlorophenyl)piperazin-1-yl]methyl]-6-methyl-morpholin-4-yl]quinoline-8-carbonitrile, reference compound], in that order: 15.43 mL/min/kg and 0.21 µM.
